Results on 18 compounds are retold here after US5292737A, “N,N'-bis(sulfonamido)-2-amino-4-iminonaphthalen-1-ones and N,N'-bis(amido)-2-amino-4-iminonaphthalen-1-ones” (Sphinx Pharmaceuticals Corporation, priority 1992, dated 1994).

SMILES strings stand for the structures. Read-outs that look alike come from different tables or passages of the source.

Test [1] deals with cAMP dependent protein kinase (PKA). Nature of the test: cAMP Dependent Protein Kinase (PKA) Assay. Format: biochemical. Conditions: for IC50: catalytic subunit of PKA; for effect on PKA activity: result in words. The essentials: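 PKA catalytic subunit preincubated with test compound added from DMSO at final 30 and 150 μM; reaction started with ^32P-ATP, run 10 min, stopped with 25% TCA plus BSA. Phosphorylated protein collected by filtration and counted by beta scintillation.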

The test system of the next test is human neutrophils. The experiment in a line: Neutrophil Superoxide Anion (O2) Release Assay, PMA-stimulated. Particulars: PMA-stimulated human neutrophils, read-out: Neutrophil Superoxide Release IC50. The class given is cell-based. From the text: Phorbol-12,13-myristate acetate (PMA) stimulates O2 production in human neutrophils which in turn reduces cytochrome C. Reducing cytochrome C increases absorbance and the change in optical density (OD) is proportional to the amount of O2 produced by PMA stimulation. Inhibition is expressed as an IC50 value and is the amount of test compound that will inhibit fifty percent of the PMA-stimulated respiratory outburst, i.e. O2^31 production (Lherer et al. (1981) J. Clinical lnvest. 68:1314; Roberts et al. (1982) J. Immunological Methods 49:193).
Human donor blood in 0.38% Sodium Citrate was centrifuged for 10 minutes at 160 ×g at room temperature. Platelet-rich plasma was removed leaving the buffy coat and the red cell-enriched fraction. Saline with 0.38% Sodium Citrate was added to this fraction up to the original blood volume. The enriched blood sample was diluted 1:1 (v:v) with 3% dextran T500 (Pharmacia) in normal saline and placed in a 60 cc syringe, inverted over a beaker and allowed to settle 30 minutes at room temperature.
Leukocyte-enriched plasma was removed from the syringe, placed into 50 ml polypropylene conical centrifuge tubes and underlaid with 15-20 ml Lymphocyte Separation Medium (LSM Organon Technica). The tubes were centrifuged for 40 minutes at 500×g at room temperature. The plasma, buffy coat and LSM were aspirated off the pellets which contained red blood cells and neutrophils.
The pellets were vortexed and 10 ml ice-cold 0.2% NaCl was added to lyse the red blood cells while vortexing again for 10 seconds. Ice-cold 1.6% NaCl was added while vortexing for 10 seconds. The cells were combined from multiple tubes, centrifuged 10 min at 400×g at 4° C. This red cell lysis was repeated and the resulting neutrophil pellet was washed once in Reaction HBSS (GIBCO, HBSS with Ca^++ and Mg^++,.238% HEPES, 0.1% dextrose, 0.1% RIA grade bovine serum albumin, PH 7.2). The cells were resuspended in 1/5 the original blood volume with Reaction HBSS, counted and adjusted to 4.0×10^6 cells/ml at 4° C.
Duplicate samples of neutrophils were tested in 12×75 mm polypropylene tubes containing 0.25 ml of the neutrophil suspension. Cytochrome C mix (0.25 ml, 6.0 mg/ml cytochrome C type IV (Sigma) plus 1200 U/ml bovine liver catalase (Sigma) in Reaction HBSS described above) was added. PMA was added at 2×the final concentration in 0.5 ml of Reaction HBSS. PMA final test concentration were 0.0, 0.3, 9.0, 27.0, and 81.0 ng/ml. The tubes were vortexed and incubated for 10 minutes at 37° C. with shaking. After chilling for 5 minutes at 4° C. and centrifuging for 10 minutes at 4° C., 550×g, 0.5 ml of supernatant was removed from each tube. Normal saline (0.5 ml) was added to each 0.5 ml sample of supernatant and the absorbance of each sample was read at 550 nm on a spectrophotometer (Shimadzu). The PMA concentration which gives nearly maximal stimulation of superoxide release was determined.
The test samples of neutrophils were prepared as in the PMA dose response through addition of cytochrome C mix. Then 0.4 ml of Reaction HBSS as a control or test agent at 2.5×final test concentration was added and the tubes were vortexed and incubated for 30 minutes at 37° C. with shaking. PMA (0.1 ml) was added at a 10× concentration of the final concentration determined above. The samples were incubated for 10 minutes at 37° C. with shaking, chilled for 5 minutes at 4° C., and then centrifuged for 5 minutes at 550×g at 4° C. The supernatant (0.5 ml) was diluted with 0.5 ml normal saline as above and the absorbance was then determined at 550 nm. The percent change was calculated as follows: [formula] D-sphingosine (Sigma) used as reference standard.
Human neutrophils were first isolated according to Lherer et al. ((1981) J. Clinical Invest. 68:1314) and then tested for stimulation of superoxide anion release with phorbol--12,13-myristate acetate (PMA) in a dose-dependent manner. […]

In the next test the target is T1, PKC isoenzyme γ (Homo sapiens, UniProt P05129).
T1 construct: made in house; host or cells: baculovirus-insect cell expression system
The experiment in a line: Protein kinase C inhibition assay, PKC isoenzyme γ. The class given is biochemical. The essentials:
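Inhibition is measured as the compound concentration halving phosphate transfer to histone H1 or myelin basic protein by baculovirus-expressed enzyme. Assays use near-physiologic conditions with sub-saturating phosphatidylserine/DAG vesicles, compound at four concentrations up to 150 μM, and a 10 min reaction terminated by trichloroacetic acid before filter counting.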

On to `Cc1cc(NS(=O)(=O)c2ccc(N=C3C=C(Nc4ccc(S(=O)(=O)Nc5cc(C)nc(C)n5)cc4)C(=O)c4ccccc43)cc2)nc(C)n1` [Compound 3d], for which the IC50 in test [1] is > 150 µM; in the test with human neutrophils (Homo sapiens, Neutrophil) it was 5.85 µM; on PKC isoenzyme γ (read-out: IC50 PKC γ), 36 µM. For the same compound, the “effect on PKA activity” value in test [1] was “did not effect on PKA activity”.

In the case of `O=C1C(Nc2ccc(S(=O)(=O)NCc3ccccn3)cc2)=CC(=Nc2ccc(S(=O)(=O)NCc3ccccn3)cc2)c2ccccc21` [Compound 6n], the IC50 is > 150 µM in test [1], 0.1 µM in the test on human neutrophils and 44 µM on PKC isoenzyme γ (read-out: IC50 PKC γ). Moreover, in test [1], the “effect on PKA activity” value is on record as “did not effect on PKA activity”.

For the compound `O=C1C(Nc2ccc(S(=O)(=O)NCCNc3ccc([N+](=O)[O-])cn3)cc2)=CC(=Nc2ccc(S(=O)(=O)NCCNc3ccc([N+](=O)[O-])cn3)cc2)c2ccccc21` [Compound 3ac], the IC50 in test [1] was > 150 µM; in the test with human neutrophils (Homo sapiens, Neutrophil), 0.05 µM; on PKC isoenzyme γ (IC50 PKC γ), 22 µM. Besides, the “effect on PKA activity” value in test [1] is reported as “did not effect on PKA activity”.

`COc1cnc(NS(=O)(=O)c2ccc(N=C3C=C(Nc4ccc(S(=O)(=O)Nc5ncc(OC)cn5)cc4)C(=O)c4ccccc43)cc2)nc1` [Compound 3h]: the IC50 in test [1] is > 150 µM; in the test with human neutrophils, 8.7 µM; at PKC isoenzyme γ (read-out: IC50 PKC γ), 55 µM. Besides, in test [1], the “effect on PKA activity” value was “did not effect on PKA activity”.

Turning to `Cc1cc(C)nc(NS(=O)(=O)c2ccc(N=C3C=C(Nc4ccc(S(=O)(=O)Nc5nc(C)cc(C)n5)cc4)C(=O)c4ccccc43)cc2)n1` [Compound 6c], the IC50 in test [1] stood at 48 µM; in the test on human neutrophils, 1.88 µM; at PKC isoenzyme γ (read-out: IC50 PKC γ), 7 µM.

For `O=C1C(Nc2ccc(S(=O)(=O)Nc3ccccn3)cc2)=CC(=Nc2ccc(S(=O)(=O)Nc3ccccn3)cc2)c2ccccc21` [Compound 6i], the IC50 was > 150 µM in test [1], 0.11 µM in the test with human neutrophils and 10 µM at PKC isoenzyme γ (read-out: IC50 PKC γ). Moreover, in test [1], the “effect on PKA activity” value is “did not effect on PKA activity”.

`Cc1cc(C)nc(NC(=O)c2ccc(N=C3C=C(Nc4ccc(C(=O)Nc5nc(C)cc(C)n5)cc4)C(=O)c4ccccc43)cc2)n1` [Compound 3ai]: the IC50 in test [1] was > 150 µM; in the test with human neutrophils (Homo sapiens, Neutrophil), 4.02 µM; at PKC isoenzyme γ (read-out: IC50 PKC γ) it was 9 µM. The “effect on PKA activity” value in test [1] was “did not effect on PKA activity”.

Turning to `O=C1C(Nc2ccc(S(=O)(=O)Nc3ccc(Cl)nn3)cc2)=CC(=Nc2ccc(S(=O)(=O)Nc3ccc(Cl)nn3)cc2)c2ccccc21` [Compound 6l], the IC50 came to 89 µM in test [1], 5.23 µM in the test on human neutrophils and 9 µM on PKC isoenzyme γ (read-out: IC50 PKC γ).

As to `COc1cnc(NS(=O)(=O)c2ccc(N=C3C=C(Nc4ccc(S(=O)(=O)Nc5ncc(OC)cn5)cc4)C(=O)c4ccccc43)cc2)nc1` [Compound 6h], the IC50 in test [1] was > 150 µM; in the test with human neutrophils, 2.4 µM; on PKC isoenzyme γ (read-out: IC50 PKC γ) it was 41 µM. Also, in test [1], the “effect on PKA activity” value is recorded as “did not effect on PKA activity”.

On to `COc1ccc(NS(=O)(=O)c2ccc(N=C3C=C(Nc4ccc(S(=O)(=O)Nc5ccc(OC)nn5)cc4)C(=O)c4ccccc43)cc2)nn1` [Compound 3j], for which the IC50 in test [1] was > 150 µM; in the test on human neutrophils (Homo sapiens, Neutrophil), 1.74 µM; at PKC isoenzyme γ (read-out: IC50 PKC γ), 15 µM. Besides, the “effect on PKA activity” value in test [1] was “did not effect on PKA activity”.

`COc1cc(NS(=O)(=O)c2ccc(N=C3C=C(Nc4ccc(S(=O)(=O)Nc5cc(OC)cc(OC)c5)cc4)C(=O)c4ccccc43)cc2)cc(OC)c1` [Compound 3af]: the IC50 in test [1] amounted to 62 µM; in the test on human neutrophils (Homo sapiens, Neutrophil), 0.06 µM; on PKC isoenzyme γ (read-out: IC50 PKC γ) it was 40 µM.

With `O=C1C(Nc2ccc(S(=O)(=O)Nc3cnc4ccccc4n3)cc2)=CC(=Nc2ccc(S(=O)(=O)Nc3cnc4ccccc4n3)cc2)c2ccccc21` [Compound 6m], the IC50 in test [1] amounted to 145 µM; in the test on human neutrophils it was 1.39 µM; on PKC isoenzyme γ (read-out: IC50 PKC γ), 10 µM.

For the compound `Cc1cc(C)nc(NS(=O)(=O)c2cc(N=C3C=C(Nc4ccc(C)c(S(=O)(=O)Nc5cc(C)cc(C)n5)c4)C(=O)c4ccccc43)ccc2C)c1` [Compound 3ag], the IC50 in test [1] is > 150 µM; in the test with human neutrophils (Homo sapiens, Neutrophil) it was 0.04 µM; at PKC isoenzyme γ (read-out: IC50 PKC γ), 20 µM. Moreover, in test [1], the “effect on PKA activity” value was “did not effect on PKA activity”.

On to `Cc1cc(C)nc(NS(=O)(=O)c2cccc(N=C3C=C(Nc4cccc(S(=O)(=O)Nc5cc(C)cc(C)n5)c4)C(=O)c4ccccc43)c2)c1` [Compound 3ae], for which the IC50 in test [1] was > 150 µM; in the test on human neutrophils (Homo sapiens, Neutrophil), 0.04 µM; on PKC isoenzyme γ (read-out: IC50 PKC γ), 16 µM. In addition, the “effect on PKA activity” value in test [1] is listed as “did not effect on PKA activity”.

Take `Cc1noc(NS(=O)(=O)c2ccc(N=C3C=C(Nc4ccc(S(=O)(=O)Nc5onc(C)c5C)cc4)C(=O)c4ccccc43)cc2)c1C` [Compound 3b]: the IC50 in test [1] is > 150 µM; in the test on human neutrophils (Homo sapiens, Neutrophil) it was 7.6 µM; on PKC isoenzyme γ (read-out: IC50 PKC γ) it was 25 µM. The “effect on PKA activity” value in test [1] is “did not effect on PKA activity”.

Turning to `O=C1C(Nc2ccc(S(=O)(=O)Nc3cnc4ccccc4n3)cc2)=CC(=Nc2ccc(S(=O)(=O)Nc3cnc4ccccc4n3)cc2)c2ccccc21` [Compound 3m], the IC50 worked out at 82 µM in test [1]; 1.31 µM in the test on human neutrophils (Homo sapiens, Neutrophil); 14 µM at PKC isoenzyme γ (read-out: IC50 PKC γ).

`COc1cc(NS(=O)(=O)c2ccc(N=C3C=C(Nc4ccc(S(=O)(=O)Nc5cc(OC)nc(OC)n5)cc4)C(=O)c4ccccc43)cc2)nc(OC)n1` [Compound 3g]: the IC50 in test [1] is > 150 µM; in the test on human neutrophils it was 2.75 µM; at PKC isoenzyme γ (read-out: IC50 PKC γ) it was 14 µM. In test [1], the “effect on PKA activity” value is recorded as “did not effect on PKA activity”.

Turning to `Cc1cc(C)nc(NS(=O)(=O)c2ccc(N=C3C=C(Nc4ccc(S(=O)(=O)Nc5nc(C)cc(C)n5)cc4)C(=O)c4ccccc43)cc2)n1` [Compound 3c], the values for the IC50 (in test [1]; in the test on human neutrophils; at PKC isoenzyme γ (read-out: IC50 PKC γ)) were > 150 µM, 0.77 µM and 21 µM, respectively. In test [1], the “effect on PKA activity” value is reported as “did not effect on PKA activity”.

The term IC50 denotes the concentration that gives 50% inhibition.
